These compounds were tested against T1, BCL6 (Homo sapiens, UniProt P41182) (assay: Immunofluorescence high content imaging of BCL6 degradation in T47D cells). Conditions: T47D breast cancer epithelial cells, 3 days incubation.
T1 construct: endogenous in cells; host or cells: T47D breast cancer epithelial cells
Assay type: cell-based
Experimental: Immunofluorescence Protocol for High Content Imaging of BCL6
T47D cells were seeded in 100 μl volume of RPMI11640-10% FBS in a 96-well black/clear bottom plates for adherent lines (Corning #3904).
Day 1. T47D breast cancer epithelial cells were seeded at a density so that confluence is ˜70-90% at endpoint. Cells were seeded at 7K/0.1 mL/well the morning prior to the addition of exemplary bifunctional degradation compounds.
Day 2. Prepare an 11 point 3-fold serial dilution of exemplary bifunctional compound in DMSO and aliquot an appropriate volume to cell growth media to generate a 2× final concentration of exemplary bifunctional compound. Add an equal volume (0.1 ml) of 2× exemplary bifunctional compound/media mix to previously plated cells, for a final top concentration in aqueous cell growth media of 0.1 or 1 μM. Incubate for 3 days at 37° C., 5% CO2.
Day 5 Immunofluorescence. Discard cell media. Wash wells with 200 μl of room temperature phosphate-buffered saline (PBS). Prepared 4% paraformaldehyde (PFA) from 16% PFA (Electron Microscopy Sciences #15710) using 1×PBS. Fifty μL of 4% PF was added to each well and incubate for 15 minutes at room temperature to fix the cells. The PFA was aspirated and the cells washed twice with PBS (200 μL)).
Prepared 0.1% Triton X-100 in PBS using 10% triton X-100 stock. The cells were permeabilized by adding 100 μL of the 0.1% Triton X-100 in PBS to each well to permeabilize cells and incubating at room temperature for 15 minutes. Cells were washed twice with PBS.
Prepared 3% BSA/PBS (from Thermofisher #37515 Blocker BSA in TBS, 10%), and 100 μL was added to each well. The cells were incubated for at least 1 hour at room temperature.
Prepared 1% BSA/PBS using Blocker BSA/PBS, and the 3% BSA/PBS removed from the wells.
For no primary antibody controls, 50 μL 1% BSA/PBS was added.
Primary antibody (BCL6 Rb Ab, CST-14895, Cell Signaling) was diluted 1:300 in 1% BSA/PBS using Blocker BSA/PBS.
Fifty μl of primary antibody added to all remaining wells (i.e., all wells other than the primary antibody controls) and the cells were incubated overnight at 4° C. with slow orbital movement.
Day 6. Contents of the wells was removed and the cells washed four times with 200 μL PBS. 1% BSA/PBS was prepared using Blocker BSA in PBS.
Diluted secondary antibody goat anti-Rb IgG Alexa-488 1:1000, and cell mask-Alexa-647 1:3000 in 1% BSA/PBS in the same mix. Add 50 μL to each well and incubate at room temperature for 1 hour in the dark.
Cells were washed three times with 200 μL PBS, and then incubated for 10 minutes with 100 μL Hoechst dye at 1 μg/mL (20 mM stock) to stain cell nuclei. Wells were then washed with 200 μl PBS, and 100 μL of PBS was added to each well and the plate covered plate with a plastic opaque cover. Plates were stored at […] and covered in aluminum foil until imaged.
Plates were equilibrated to room temperature prior to reading. The bottom of the plate was wiped with 70% isopropanol immediately prior to imaging.
Imaging: • 10×, 4 fields/well, include Top hat smoothing in the analysis protocol.
Supplies/Reagents: • 16% paraformaldehyde: Electron Microscopy Sciences #15710 • Hoechst: Thermofisher #62249 • Blocker BSA in PBS, 10%: Thermofisher #37515 • Blocker BSA in TBS, 10%: Thermofisher #37520 • Goat anti-rabbit or mouse AlexaFluor-488: Thermofisher #A11008 • Cell mask deep red AlexaFluor-647: Thermofisher #C10046 • Wash buffer, PBS: 20×PBS, Thermofisher

| Structure (SMILES) | DC50 | Dmax |
| --- | --- | --- |
| CNC(=O)COc1cc2cc(Nc3nc(N4CCC(O[C@H]5C[C@H](N6CCN(c7ccc8c(c7F)[C@@H](C)N([C@H]7CCC(=O)NC7=O)C8=O)[C@H](C)C6)C5)CC4)ncc3Cl)ccc2n(C(C)C)c1=O (single isomer, unassigned) [Compound 30] | 0.01 to 0.05 µM | < 50% |
| CNC(=O)COc1cc2cc(Nc3nc(N4CCC(O[C@H]5C[C@H](N6CCN(c7ccc8c(c7F)[C@@H](C)N([C@@H]7CCC(=O)NC7=O)C8=O)[C@H](C)C6)C5)CC4)ncc3Cl)ccc2n(C(C)C)c1=O (single isomer, unassigned) [Compound 31] | < 0.01 µM | – |
| CNC(=O)COc1cc2cc(Nc3nc(N4CCC(O[C@H]5C[C@H](N6CCN(c7ccc8c(c7Cl)[C@@H](C)N([C@H]7CCC(=O)NC7=O)C8=O)[C@H](C)C6)C5)CC4)ncc3Cl)ccc2n(C(C)C)c1=O (single isomer, unassigned) [Compound 32] | < 0.01 µM | ≥ 70% |
| CNC(=O)COc1cc2cc(Nc3nc(N4CCC(O[C@H]5C[C@H](N6CCN(c7ccc8c(c7Cl)[C@@H](C)N([C@@H]7CCC(=O)NC7=O)C8=O)[C@H](C)C6)C5)CC4)ncc3Cl)ccc2n(C(C)C)c1=O (single isomer, unassigned) [Compound 33] | < 0.01 µM | ≥ 70% |
| CNC(=O)COc1cc2cc(Nc3nc(N4CCC(O[C@H]5C[C@H](N6CCN(c7ccc8c(c7Cl)[C@H](C)N([C@H]7CCC(=O)NC7=O)C8=O)[C@H](C)C6)C5)CC4)ncc3Cl)ccc2n(C(C)C)c1=O (single isomer, unassigned) [Compound 34] | 0.01 to 0.05 µM | < 50% |
| CNC(=O)COc1cc2cc(Nc3nc(N4CCC(O[C@H]5C[C@H](N6CCN(c7ccc8c(c7Cl)[C@H](C)N([C@@H]7CCC(=O)NC7=O)C8=O)[C@H](C)C6)C5)CC4)ncc3Cl)ccc2n(C(C)C)c1=O (single isomer, unassigned) [Compound 35] | < 0.01 µM | 50 to 70% |
| CNC(=O)COc1cc2cc(Nc3nc(N4CCC(O[C@H]5C[C@H](N6CCC(c7cccc8c7n(C)c(=O)n8C7CCC(=O)NC7=O)CC6)C5)CC4)ncc3Cl)ccc2n(C(C)C)c1=O (stereo partly drawn) [Compound 1, 2-({6-[(5-chloro-2-{4-[(1r,3r)-3-{4-[1-(2,6-dioxopiperidin-3-yl)-3-methyl-2-oxo-2,3-dihydro-1H-1,3-benzodiazol-4-yl]piperidin-1-yl}cyclobutoxy]piperidin-1-yl}pyrimidin-4-yl)amino]-2-oxo-1-(propan-2-yl)-1,2-dihydroquinolin-3-yl}oxy)-N-methylacetamide] | < 0.01 µM | ≥ 70% |
| CNC(=O)COc1cc2cc(Nc3nc(N4CCC(O[C@H]5C[C@H](N6CCN(c7cccc8c7n(C)c(=O)n8C7CCC(=O)NC7=O)CC6)C5)CC4)ncc3Cl)ccc2n(C(C)C)c1=O (stereo partly drawn) [Compound 2, 2-({6-[(5-chloro-2-{4-[(1r,3r)-3-{4-[1-(2,6-dioxopiperidin-3-yl)-3-methyl-2-oxo-2,3-dihydro-1H-1,3-benzodiazol-4-yl]piperazin-1-yl}cyclobutoxy]piperidin-1-yl}pyrimidin-4-yl)amino]-2-oxo-1-(propan-2-yl)-1,2-dihydroquinolin-3-yl}oxy)-N-methylacetamide] | < 0.01 µM | ≥ 70% |
| CNC(=O)COc1cc2cc(Nc3nc(N4CCC(O[C@H]5C[C@H](N6CCN(c7ccc8c(c7)n(C)c(=O)n8C7CCC(=O)NC7=O)CC6)C5)CC4)ncc3Cl)ccc2n(C(C)C)c1=O (stereo partly drawn) [Compound 3, 2-({6-[(5-chloro-2-{4-[(1r,3r)-3-{4-[1-(2,6-dioxopiperidin-3-yl)-3-methyl-2-oxo-2,3-dihydro-1H-1,3-benzodiazol-5-yl]piperazin-1-yl}cyclobutoxy]piperidin-1-yl}pyrimidin-4-yl)amino]-2-oxo-1-(propan-2-yl)-1,2-dihydroquinolin-3-yl}oxy)-N-methylacetamide] | < 0.01 µM | ≥ 70% |
| CNC(=O)COc1cc2cc(Nc3nc(N4CCC(O[C@H]5C[C@H](N6CCC(c7ccc8c(c7)n(C)c(=O)n8C7CCC(=O)NC7=O)CC6)C5)CC4)ncc3Cl)ccc2n(C(C)C)c1=O (stereo partly drawn) [Compound 4, 2-({6-[(5-chloro-2-{4-[(1r,3r)-3-{4-[1-(2,6-dioxopiperidin-3-yl)-3-methyl-2-oxo-2,3-dihydro-1H-1,3-benzodiazol-5-yl]piperidin-1-yl}cyclobutoxy]piperidin-1-yl}pyrimidin-4-yl)amino]-2-oxo-1-(propan-2-yl)-1,2-dihydroquinolin-3-yl}oxy)-N-methylacetamide] | < 0.01 µM | ≥ 70% |
| CNC(=O)COc1cc2cc(Nc3nc(N4CCC(O[C@H]5C[C@H](N6CCN(c7ccc(NC8CCC(=O)NC8=O)cc7)CC6)C5)CC4)ncc3Cl)ccc2n(C(C)C)c1=O (stereo partly drawn) [Compound 5, 2-({6-[(5-chloro-2-{4-[(1r,3r)-3-(4-{4-[(2,6-dioxopiperidin-3-yl)amino]phenyl}piperazin-1-yl)cyclobutoxy]piperidin-1-yl}pyrimidin-4-yl)amino]-2-oxo-1-(propan-2-yl)-1,2-dihydroquinolin-3-yl}oxy)-N-methylacetamide] | 0.05 to 0.1 µM | – |
| CNC(=O)COc1cc2cc(Nc3nc(N4CCC(O[C@H]5C[C@H](N6CCN(c7ccc8c(n7)n(C)c(=O)n8C7CCC(=O)NC7=O)CC6)C5)CC4)ncc3Cl)ccc2n(C(C)C)c1=O (stereo partly drawn) [Compound 6, 2-({6-[(5-chloro-2-{4-[(1r,3r)-3-{4-[1-(2,6-dioxopiperidin-3-yl)-3-methyl-2-oxo-1H,2H,3H-imidazo[4,5-b]pyridin-5-yl]piperazin-1-yl}cyclobutoxy]piperidin-1-yl}pyrimidin-4-yl)amino]-2-oxo-1-(propan-2-yl)-1,2-dihydroquinolin-3-yl}oxy)-N-methylacetamide] | < 0.01 µM | ≥ 70% |
| CCn1c(=O)n(C2CCC(=O)NC2=O)c2ccc(N3CCN([C@H]4C[C@H](OC5CCN(c6ncc(Cl)c(Nc7ccc8c(c7)cc(OCC(=O)NC)c(=O)n8C(C)C)n6)CC5)C4)CC3)cc21 (stereo partly drawn) [Compound 7] | < 0.01 µM | ≥ 70% |
| CNC(=O)COc1cc2cc(Nc3nc(N4CCC(O[C@H]5C[C@H](N6CCN(c7ccc8c(c7F)n(C)c(=O)n8C7CCC(=O)NC7=O)CC6)C5)CC4)ncc3Cl)ccc2n(C(C)C)c1=O (stereo partly drawn) [Compound 8, 2-({6-[(5-chloro-2-{4-[(1r,3r)-3-{4-[1-(2,6-dioxopiperidin-3-yl)-4-fluoro-3-methyl-2-oxo-2,3-dihydro-1H-1,3-benzodiazol-5-yl]piperazin-1-yl}cyclobutoxy]piperidin-1-yl}pyrimidin-4-yl)amino]-2-oxo-1-(propan-2-yl)-1,2-dihydroquinolin-3-yl}oxy)-N-methylacetamide] | < 0.01 µM | ≥ 70% |
| CNC(=O)COc1cc2cc(Nc3nc(N4CCC(O[C@H]5C[C@H](N6CCN(c7cc8c(cc7F)n(C7CCC(=O)NC7=O)c(=O)n8C)CC6)C5)CC4)ncc3Cl)ccc2n(C(C)C)c1=O (stereo partly drawn) [Compound 9, 2-({6-[(5-chloro-2-{4-[(1r,3r)-3-{4-[1-(2,6-dioxopiperidin-3-yl)-6-fluoro-3-methyl-2-oxo-2,3-dihydro-1H-1,3-benzodiazol-5-yl]piperazin-1-yl}cyclobutoxy]piperidin-1-yl}pyrimidin-4-yl)amino]-2-oxo-1-(propan-2-yl)-1,2-dihydroquinolin-3-yl}oxy)-N-methylacetamide] | < 0.01 µM | ≥ 70% |
| CNC(=O)COc1cc2cc(Nc3nc(N4CCC(O[C@H]5C[C@H](N6CCN(c7cc(F)c8c(c7)n(C)c(=O)n8C7CCC(=O)NC7=O)CC6)C5)CC4)ncc3Cl)ccc2n(C(C)C)c1=O (stereo partly drawn) [Compound 10, 2-({6-[(5-chloro-2-{4-[(1r,3r)-3-{4-[1-(2,6-dioxopiperidin-3-yl)-7-fluoro-3-methyl-2-oxo-2,3-dihydro-1H-1,3-benzodiazol-5-yl]piperazin-1-yl}cyclobutoxy]piperidin-1-yl}pyrimidin-4-yl)amino]-2-oxo-1-(propan-2-yl)-1,2-dihydroquinolin-3-yl}oxy)-N-methylacetamide] | < 0.01 µM | ≥ 70% |

Reference: patent US20240190841A1, “MODULATORS OF BCL6 PROTEOLYSIS AND ASSOCIATED METHODS OF USE” (Arvinas Operations, Inc., priority 2022, published 2024)
